Laboratory results: patent US20010044457A1, “Cancer Treatment” (priority 2000, published 2001)

Tested on: pancreatic (MiaPaCa) cancer
Experiment: in vivo pancreatic (MiaPaCa) cancer nude mouse tumor model
Method: The control is PEG. Both the control and the active are given once a week to the end. The doses were 500 mg/kg, 750 mg/kg and 1000 mg/kg. The surviving animals average tumor weight in mg is: […]

Q: `COc1ccc(C=Nn2cc(-c3ccccc3)nc2N)cc1` [2-Amino-1-(4-methoxybenzyliden)amino-4-phenylimidazole] was tested. Which Deaths (500 mg/kg once a week, Day 1) did it give?
A: 0

Q: What about the “Tumor Weight (surviving animals average)” value (500 mg/kg once a week, Day 1) of the same compound?
A: 77 mg

Q: And the Deaths (500 mg/kg once a week, Day 5)?
A: 0

Q: What about the “Tumor Weight (surviving animals average)” value (500 mg/kg once a week, Day 5) of the same compound?
A: 161 mg

Q: And the Deaths (500 mg/kg once a week, Day 9)?
A: 0

Q: What about the “Tumor Weight (surviving animals average)” value (500 mg/kg once a week, Day 9) of the same compound?
A: 322 mg

Q: And the Deaths (500 mg/kg once a week, Day 12)?
A: 0

Q: And the “Tumor Weight (surviving animals average)” value (500 mg/kg once a week, Day 12)?
A: 271 mg

Q: And the Deaths (500 mg/kg once a week, Day 16)?
A: 0

Q: What about the “Tumor Weight (surviving animals average)” value (500 mg/kg once a week, Day 16) of the same compound?
A: 596 mg

Q: And the Deaths (500 mg/kg once a week, Day 19)?
A: 0

Q: And the “Tumor Weight (surviving animals average)” value (500 mg/kg once a week, Day 19)?
A: 640 mg

Q: What about the Deaths (500 mg/kg once a week, Day 23) of the same compound?
A: 0

Q: And the “Tumor Weight (surviving animals average)” value (500 mg/kg once a week, Day 23)?
A: 638 mg

Q: And the Deaths (500 mg/kg once a week, Day 26)?
A: 0

Q: What about the “Tumor Weight (surviving animals average)” value (500 mg/kg once a week, Day 26) of the same compound?
A: 532 mg

Q: What about the “efficacy in tumor model” value (500 mg/kg, 750 mg/kg and 1000 mg/kg once a week, control PEG) of the same compound?
A: dose responsive efficacy

Q: And the Deaths (750 mg/kg once a week, Day 1)?
A: 0

Q: And the “Tumor Weight (surviving animals average)” value (750 mg/kg once a week, Day 1)?
A: 76 mg

Q: And the Deaths (750 mg/kg once a week, Day 5)?
A: 0

Q: And the “Tumor Weight (surviving animals average)” value (750 mg/kg once a week, Day 5)?
A: 117 mg

Q: What about the Deaths (750 mg/kg once a week, Day 9) of the same compound?
A: 0

Q: And the “Tumor Weight (surviving animals average)” value (750 mg/kg once a week, Day 9)?
A: 290 mg

Q: What about the Deaths (750 mg/kg once a week, Day 12) of the same compound?
A: 0

Q: What about the “Tumor Weight (surviving animals average)” value (750 mg/kg once a week, Day 12) of the same compound?
A: 281 mg

Q: What about the Deaths (750 mg/kg once a week, Day 16) of the same compound?
A: 0

Q: What about the “Tumor Weight (surviving animals average)” value (750 mg/kg once a week, Day 16) of the same compound?
A: 369 mg

Q: What about the Deaths (750 mg/kg once a week, Day 19) of the same compound?
A: 0

Q: And the “Tumor Weight (surviving animals average)” value (750 mg/kg once a week, Day 19)?
A: 364 mg

Q: What about the Deaths (750 mg/kg once a week, Day 23) of the same compound?
A: 0

Q: What about the “Tumor Weight (surviving animals average)” value (750 mg/kg once a week, Day 23) of the same compound?
A: 420 mg

Q: What about the Deaths (750 mg/kg once a week, Day 26) of the same compound?
A: 0

Q: And the “Tumor Weight (surviving animals average)” value (750 mg/kg once a week, Day 26)?
A: 418 mg

Q: What about the Deaths (1000 mg/kg once a week, Day 1) of the same compound?
A: 0

Q: And the “Tumor Weight (surviving animals average)” value (1000 mg/kg once a week, Day 1)?
A: 90 mg

Q: And the Deaths (1000 mg/kg once a week, Day 5)?
A: 0

Q: And the “Tumor Weight (surviving animals average)” value (1000 mg/kg once a week, Day 5)?
A: 90 mg

Q: And the Deaths (1000 mg/kg once a week, Day 9)?
A: 0

Q: And the “Tumor Weight (surviving animals average)” value (1000 mg/kg once a week, Day 9)?
A: 150 mg

Q: And the Deaths (1000 mg/kg once a week, Day 12)?
A: 0

Q: And the “Tumor Weight (surviving animals average)” value (1000 mg/kg once a week, Day 12)?
A: 130 mg

Q: What about the Deaths (1000 mg/kg once a week, Day 16) of the same compound?
A: 0

Q: And the “Tumor Weight (surviving animals average)” value (1000 mg/kg once a week, Day 16)?
A: 120 mg

Q: What about the Deaths (1000 mg/kg once a week, Day 19) of the same compound?
A: 1

Q: What about the “Tumor Weight (surviving animals average)” value (1000 mg/kg once a week, Day 19) of the same compound?
A: 110 mg

Q: And the Deaths (1000 mg/kg once a week, Day 23)?
A: 0

Q: What about the “Tumor Weight (surviving animals average)” value (1000 mg/kg once a week, Day 23) of the same compound?
A: 198 mg

Q: And the Deaths (1000 mg/kg once a week, Day 26)?
A: 0

Q: What about the “Tumor Weight (surviving animals average)” value (1000 mg/kg once a week, Day 26) of the same compound?
A: 192 mg
